One data set in a line: in vitro. Conditions: human, Caco-2. The protocol: The Caco-2 assay was performed according to the procedure described in the following cited article [Caco-2 Monolayers in Experimental and Theoretical Predictions of Drug Transport, Artursson P, Palm K, Luthman K., Adv. Drug Deliv. Rev., 2001, 46, 27-43].
In data set [1] the test system is MV522 human NSCLC tumour xenograft. Briefly: Nude mouse model of human MV522 non-small cell lung cancer tumours. The following applies: group five: paclitaxel 16 mg/kg i.p. qdx5 alone. Format: in vivo, nude mice. On the procedure: Initial Maximum Tolerated Dose (MTD) studies were done in male nude mice to determine the appropriate intravenous dosing regimen for the MV522 human NSCLC tumour model. A range of doses between 0 and 50 mg/Kg for 28 days (qdx28) were tested. Mice were randomized into groups with 5 animals per group including vehicle control. Animals were weighed twice weekly starting on day one and observed daily for adverse reactions or toxicity due to the agent. MTD studies determined the selection of 20 mg/kg and 35 mg/kg for intravenous dosing once per day for 28 days in the MV522 human NSCLC tumour xenograft model.
Male nude mice (nu/nu) between 5 and 6 weeks of age weighing approximately 20 g were implanted subcutaneously (s.c) by trocar with fragments of MV522 human tumour carcinomas harvested from s.c growing tumours in host mice. MV-522 is a metastatic human lung adenocarcinoma line. When tumours reached approximately 72 mg in size animals were pair matched into treatment and control groups with 10 mice in each group. Each mouse was tagged and followed individually throughout the experiment.
“Compound 1” was administered i.v. in a saline vehicle from day one. Vehicle control group animals were administered saline i.v. There were nine treatment groups including the vehicle control group. […]
At the end of the treatment period the mice were weighed and sacrificed. Each tumour was excised and weighed and a mean actual tumour weight (mg) per group was calculated along with the mean actual volume (mm^3). […] Mean tumour regression was determined using the formula [1−(mean actual tumour weightFINAL/mean tumour weightDAY 1)×100%].

For `OC[C@@H](O)[C@@H](O)[C@H](O)[C@H](O)CO` [mannitol, reference compound], the apparent permeability coefficient (Papp) in “in vitro” was 8.13 nm/s. Regarding `CC(=O)O[C@H]1C(=O)[C@@]2(C)[C@H]([C@H](OC(=O)c3ccccc3)[C@]3(O)C[C@H](OC(=O)[C@H](O)[C@@H](NC(=O)c4ccccc4)c4ccccc4)C(C)=C1C3(C)C)[C@]1(OC(C)=O)CO[C@@H]1C[C@@H]2O` [paclitaxel, reference compound], the “Tumour growth inhibition (TGI)” value in data set [1] is on record as 42.1%.
